Data reported in patent US20140023647A1, “METHOD FOR TREATING SOLID TUMORS” (BELLICUM PHARMACEUTICALS, INC., priority 2010, published 2014).
Read-outs that look alike come from different tables or passages of the source.

Assays:
FKBP12(V36) = molecular target: T1, FKBP12(V36) (Homo sapiens, UniProt P62942, F37V); assay: AP1903 needed in vitro for effective signaling of cells; type: cell-based
T1 construct: expressed in transfected cells; host or cells: cells transduced with Ad5f35-ihCD40 (human monocyte-derived dendritic cells); inferred, the sentence names no cells
Experimental: The fixed dose of AP1903 for Injection used in this study is 0.4 mg/kg intravenously infused over 2 hours. The amount of AP1903 needed in vitro for effective signaling of cells is 10-100 nM (1600 Da MW). This equates to 16-160 μg/L or ˜0.016-1.6 mg/kg (1.6-160 μg/kg). Doses up to 1 mg/kg were well-tolerated in the Phase I study of AP1903 described above. Therefore, 0.4 mg/kg may be a safe and effective dose of AP1903 for this Phase I study in combination with BPX-101.

[1] = cited from earlier work
NFkappaB = NFkappaB reporter assay, iCD40 constructs in Jurkat T cells with titrated AP20187; type: cell-based, human
Experimental: Reporters assays were conducted in human Jurkat-TAg (T cells) or 293 (kidney embryonic epithelial) cells or murine RAW264.7 (macrophage) cells. Jurkat-TAg cells (107) in log-phase growth were electroporated ([…], 250 V) with […] expression plasmid and […] of reporter plasmid NF-kB-SEAP or IFNb-TA-SEAP (see above). 293 or RAW264.7 cells (˜2×10^5 cells per 35-mm dish) in log phase were transfected with […] of FuGENE-6 in growth media. After 24 hr, transformed cells were stimulated with CID. After an additional 20 h, supernatants were assayed for SEAP activity as discussed previously (Spencer, D. M., et al., Science 262, 1019-1024 (1993)).
An inducible CD40 receptor based on chemical-induced dimerization (CID) and patterned after endogenous CD40 activation was produced to specifically target DCs (FIG. 1A). The recombinant CD40 receptor, termed iCD40, was engineered by rt-PCR amplifying the 228 bp CD40 cytoplasmic signaling domain from purified murine bone marrow-derived DCs (>95% CD11c+) and sub-cloning the resulting DNA fragment either downstream (i.e., M-FvFvlsCD40-E) or upstream (M-CD40-FvFvls-E) of tandem copies of the dimerizing drug binding domain, FKBP12(V36) (FIG. 1B). […]

IL-6 = molecular target: T2, IL-6 (Homo sapiens, UniProt P05231); details: cited from earlier work
T2 construct: host or cells: patients' endogenous IL-6

[2] = patients with advanced cancer, Clarke et al.

T2 sequence (P05231 30-212): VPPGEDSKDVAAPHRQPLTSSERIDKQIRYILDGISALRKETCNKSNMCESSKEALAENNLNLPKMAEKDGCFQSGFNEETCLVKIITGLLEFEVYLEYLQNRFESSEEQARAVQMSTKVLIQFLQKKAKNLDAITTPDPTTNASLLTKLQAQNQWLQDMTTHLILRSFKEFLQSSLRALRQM
T1 sequence (P62942 2-108 F37V): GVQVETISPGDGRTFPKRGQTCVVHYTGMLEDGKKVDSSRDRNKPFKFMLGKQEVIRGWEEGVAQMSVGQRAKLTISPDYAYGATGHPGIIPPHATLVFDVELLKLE

Question: With `CC[C@H](C(=O)N1CCCC[C@H]1C(=O)O[C@H](CCc1ccc(OC)c(OC)c1)c1cccc(OCC(=O)NCCNC(=O)COc2cccc([C@@H](CCc3ccc(OC)c(OC)c3)OC(=O)[C@@H]3CCCCN3C(=O)[C@@H](CC)c3cc(OC)c(OC)c(OC)c3)c2)c1)c1cc(OC)c(OC)c(OC)c1` (relative stereo) [AP1903, 2-Piperidinecarboxylic acid, 1-[(2S)-1-oxo-2-(3,4,5-trimethoxyphenyl)butyl]-, 1,2-ethanediylbis[imino(2-oxo-2,1-ethanediyl)oxy-3,1-phenylene[(1R)-3-(3,4-dimethoxyphenyl)propylidene]]ester, [2S-[1(R*),2R*[S*[S*[1(R*),2R*]]]]]-(9Cl)] as the molecule, how does the “amount needed for effective signaling, converted to dose” value (FKBP12(V36)) read?
Answer: The value was 0.016 to 1.6 mg/kg.

Question: What about the “amount needed in vitro for effective signaling of cells” value (FKBP12(V36)) of the same molecule?
Answer: Its value is 10 to 100 nM.

Question: And the “amount needed for effective signaling, converted” value (FKBP12(V36); 1600 Da MW)?
Answer: The value was 16 to 160 µg/L.

Question: What about the “mean Cmax” value ([1]; 0.01-1.0 mg/kg dose range, IV over 2 hours, plasma) of the same molecule?
Answer: Its value is 10 to 1275 ng/mL.

Question: What about the “AP1903 plasma levels versus dose” value ([1]; 0.01-1.0 mg/kg) of the same molecule?
Answer: Its value is “directly proportional to dose”.

Question: What about the “plasma level as % of maximal concentration” value (“plasma level as %” for short) ([1]; 0.5 hours post-dose) of the same molecule?
Answer: Its value is “approximately 18%”.

Question: What about the “plasma level as %” value ([1]; 2 hours post-dose) of the same molecule?
Answer: The value was ~7%.

Question: What about the “plasma level as %” value ([1]; 10 hours post-dose) of the same molecule?
Answer: The value was ~1%.

Question: What about the well-tolerated doses ([1]; Phase I study of AP1903) of the same molecule?
Answer: The well-tolerated doses was “up to 1 mg/kg”.

Question: With `CC[C@H](C(=O)N1CCCC[C@H]1C(=O)O[C@H](CCc1ccc(OC)c(OC)c1)c1cccc(OCC(=O)NCC(CNC(=O)COc2cccc([C@@H](CCc3ccc(OC)c(OC)c3)OC(=O)[C@@H]3CCCCN3C(=O)[C@@H](CC)c3cc(OC)c(OC)c(OC)c3)c2)CN(C)C)c1)c1cc(OC)c(OC)c(OC)c1` [AP20187] as the molecule, how does the “high drug dose suppression” value (NFkappaB; iCD40-transfected Jurkat T cells) read?
Answer: The value was “over 100 nM”.

Question: What about the “NF B transcriptional activity” value (NFkappaB; increasing AP20187, iCD40 constructs vs control vector M-FvFvls-E) of the same molecule?
Answer: Its value is “significant upregulation”.

B1: ALD-518: humanized anti-IL-6 monoclonal antibody (antibody, chains of the INN, looked up, V domains shown)
VH: EVQLVESGGGLVQPGGSLRLSCAASGFSLSNYYVTWVRQAPGKGLEWVGIIYGSDETAYATSAIGRFTISRDNSKNTLYLQMNSLRAEDTAVYYCARDDSSDWDAKFNLWGQGTLVTVSS
VL: AIQMTQSPSSLSASVGDRVTITCQASQSINNELSWYQQKPGKAPKLLIYRASTLASGVPSRFSGSGSGTDFTLTISSLQPDDFATYYCQQGYSLRNIDNAFGGGTKVEIK
Question: Which results are given for B1?
Answer: hematologic parameters and albumin (IL-6; larger study, cancer-related anemia, cachexia and fatigue, Schuster et al.): increase hemoglobin, hematocrit, mean corpuscular hemoglobin, and albumin; C-reactive protein levels (IL-6; [2]): decrease in C-reactive protein levels; fatigue, hemoglobin and albumin (IL-6; [2]): reverse fatigue, increase hemoglobin and increase albumin; hand grip strength (IL-6; [2]): trend to increased hand grip strength
